{"source": "paper PMC9607246", "about": "(Pharmaceutics, 2022)", "key": {"[1]": {"details": "excretion primarily by the kidneys; cited from earlier work"}, "[2]": {"test": "Population pharmacokinetic model of daptomycin in patients with normal and impaired renal function (NONMEM)", "procedure": "A prospective multi-center study in patients admitted to the General University Hospital of Castellón (Castellón, Spain) and the Arnau de Vilanova Hospital of Valencia (Valencia, Spain) was conducted. […] The exclusion criteria were patients with renal replacement therapy.\nFive serial blood samples were collected from a peripheral vein from day 4 (steady state) at the pre-dose, 0.5, 1–2, 4–10 h after the infusion ended and before the next dose.\nPrecision and accuracy were assessed by performing replicate analysis of quality control samples against calibration standards. Intra- and inter-assay coefficients of the variation were always <10%.\nAll data analyses were performed based on the population approach with the software NONMEM® (Version 7.4; Icon Inc, PA, USA). The population PK parameters were estimated using the Stochastic Approximation of the Expectation Maximization and the Importance Sampling Estimation method. The Perl-Speaks-NONMEM program (version 4.8.1, Department of Pharmaceutical Biosciences, Uppsala University, Sweden) [33] and Pirana software (version 2.9.6, Pirana Software & Consulting BV) were used for model development and evaluation. Data processing and graphical analysis were conducted using R (version 4.0.0, http://cran.r-project.org, accessed on 14 April 2020) and R-Studio (version v2021.09.0+354).\nThis model assumes that Cbound is directly proportional to Cfree with no saturable mechanism. • Non-linear binding model with single site binding [38, 39]: (2) Ctotal=Cfree+Bmax·Cfree/(KD+Cfree) where Bmax (mg/L) represents the maximal binding capacity and KD (mg/L) is the equilibrium dissociation constant. • Non-linear binding model with multiple site binding [38, 40, 41] (3) Ctotal=Cfree+∑^ Bmax,i·Cfree/(KD,i+Cfree) where Bmax,i and KD,i represent the binding-dissociation parameters of the i th binding site of plasma proteins.\nInter-individual variability (IIV) associated with the PK model parameters was modeled exponentially, and the residual unexplained variability (RUV) was explored using the additive error model on the logarithmic scale. The significance of the non-diagonal elements of the Ω variance-covariance matrix was evaluated.\nOnce the base model was selected, a graphical exploration of the correlations between the PK parameters (when eta-shrinkage was less than 35%) [42] and covariates was performed. The continuous covariate included age, height, body weight, serum creatinine, creatinine clearance, and albumin. The categorical covariates were gender and statin co-administration. A numerical evaluation of the parameter-covariate relationship was performed manually in a univariate testing.\nThe model selection was based on the physiological and pharmacological rationale with the principle of parsimony [43]. A decrease in 3.84 points of the objective function value (OFV) provided by NONMEM® between two nested models differing in one parameter was considered significant at the 5% level, together with the visual inspection of the goodness of fit (GOF) [44] and normalized prediction distribution error (NPDE) plots [45].\nA model evaluation [46, 47] was performed through prediction-corrected visual predictive checks (pc-VPC), [48] and a non-parametric bootstrap (n = 1000) was conducted to assess the statistical significance of the final parameter estimates."}, "[3]": {"test_system": "Pathogenic micro-organism (S. aureus, S. epidermidis, S. hominis, E. fecalis, S. sacrophyticus, S. lugdunensis)", "assay_type": "cell-based", "details": "e-test; median (IQR) of pathogens of the 46 patients (36/46 identified); mg/L", "experimental": "Demographic (age, body weight and height), treatment (dose and co-administered medications) and clinical data (microbiological data, analytical and disease covariates) were collected at patient enrolment. Serum creatinine and serum albumin were measured on the day (if not available, the nearest day) of measurement of the drug concentration."}, "Staphylococcus aureus": {"test_system": "Staphylococcus aureus", "details": "total AUC, MIC equal to 1 mg/L, cited from earlier work"}, "[4]": {"test_system": "plasma proteins (albumin and α-glycoprotein)", "details": "cited from earlier work"}, "[5]": {"test_system": "creatine phosphokinase elevation", "details": "in vivo; cited from earlier work", "experimental": "The probability of Cmin ≥24.3 mg/L at 24 h was calculated for each scenario."}, "[6]": {"details": "non-parametric bootstrap n = 1000, median"}, "[7]": {"details": "population estimate, final model, unbound daptomycin, 46 patients"}}, "note": "Like-named read-outs stand apart in the source and are kept apart here.", "data": [{"molecule": "CCCCCCCCCC(=O)N[C@@H](Cc1c[nH]c2ccccc12)C(=O)N[C@H](CC(N)=O)C(=O)N[C@@H](CC(=O)O)C(=O)N[C@@H]1C(=O)NCC(=O)N[C@@H](CCCN)C(=O)N[C@@H](CC(=O)O)C(=O)N[C@H](C)C(=O)N[C@@H](CC(=O)O)C(=O)NCC(=O)N[C@H](CO)C(=O)N[C@@H]([C@H](C)CC(=O)O)C(=O)N[C@@H](CC(=O)c2ccccc2N)C(=O)O[C@@H]1C", "note": "[daptomycin]", "values": [{"measurement": "eliminated in urine", "setting": "[1]", "value": "54–78%"}, {"measurement": "CL, bootstrap median", "setting": "[2]; [6]", "value": 7.01, "unit": "L/h"}, {"measurement": "Q, bootstrap median", "setting": "[2]; [6]", "value": 1.93, "unit": "L/h"}, {"measurement": "V1, bootstrap median", "setting": "[2]; [6]", "value": 0.97, "unit": "L"}, {"measurement": "Q (intercompartmental clearance)", "setting": "[2]; [7]", "value": 1.96, "unit": "L/h"}, {"measurement": "V1 (apparent volume of distribution of the unbound central compartment)", "setting": "[2]; [7]", "value": 0.95, "unit": "L"}, {"measurement": "MIC micro-organism", "setting": "[3]", "value": "0.5 (0.25, 0.5)"}, {"measurement": "AUC with bactericidal effect", "setting": "Staphylococcus aureus; ref 19", "value": 761, "unit": "mg·h/L"}, {"measurement": "AUC with bacteriostatic effect", "setting": "Staphylococcus aureus; ref 19", "value": 465, "unit": "mg·h/L"}, {"measurement": "AUC with bactericidal effect", "setting": "Staphylococcus aureus; ref 24, 51, 52", "value": 666, "unit": "mg·h/L"}, {"measurement": "free fraction", "setting": "[4]", "value": "around 10%"}, {"measurement": "reversibly bound to albumin and α-glycoprotein", "setting": "[4]", "value": 90, "unit": "%"}, {"measurement": "trough level (Cmin) associated with a 50% probability of creatine phosphokinase elevation", "setting": "[5]", "value": "≥ 24.3", "unit": "mg/L"}, {"measurement": "Bmax (maximal binding capacity)", "setting": "human plasma proteins; in vivo", "value": 160, "unit": "mg/L"}, {"measurement": "Bmax, bootstrap median", "setting": "human plasma proteins; in vivo", "value": 157, "unit": "mg/L"}, {"measurement": "KD, bootstrap median", "setting": "human plasma proteins; [6]", "value": 3.61, "unit": "mg/L"}, {"measurement": "KD (equilibrium dissociation constant)", "setting": "human plasma proteins; population estimate, single-site non-linear binding model, estimated from total concentrations, no free concentrations measured", "value": 3.56, "unit": "mg/L"}]}]}
